# From patent publication US10532054B2, “Compounds for the prevention and treatment of cardiovascular diseases” (Resverlogix Corp., priority 2007, dated 2020)
# How the values were obtained:
# [1] = system: ApoA-I mRNA; assay: Quantification of ApoA-I mRNA in HepG2 cells; assay type: cell-based; parameters: key: Active: An active compound is one that causes a >15% increase in ApoA-I mRNA at a concentration less than or equal to 100 uM; conditions: concentration less than or equal to 100 uM
# Protocol: In this example, ApoA-I mRNA in tissue culture cells was quantitated to measure the transcriptional up-regulation of ApoA-I when treated with a compound of the invention.
# HepG2 cells (˜2×10^5 per well) were placed in a 24-well plate in ˜400 μL MEM, supplemented with 0.5% (v/v) FBS, 24 h before addition of the compound of interest. At time of harvesting, the spent media was removed from the HepG2 cells and immediately placed on ice (for immediate use) or at −80° C. (for future use) in ApoA-I and albumin ELISAs. The cells remaining in the plate wells were rinsed in 200 μL PBS. PBS was carefully removed to avoid removing any loosely attached cells.
# Once the PBS was removed, 85 μL cell lysis solution was added the cells in each well and incubated for 5-10 min at room temperature, to allow for complete cell lysis and detachment. mRNA was then prepared using the “mRNA Catcher PLUS plate” from Invitrogen, according to the protocol supplied. […]
# The eluted mRNA isolated was then used in a one-step real-time […] reaction, using components of the Ultra Sense Kit together with Applied Biosystems primer-probe mixes. Real-time PCR data was analyzed, using the Ct values, to determine the fold induction of each unknown sample, relative to the control (that is, relative to the control for each independent DMSO concentration). […]
# [2] = subjects with low HDL-C; cited from earlier work
# [3] = following oral administration; cited from earlier work
compound,measurement,setting,value
"4-(1-Oxo-1,2-dihydroisoquinolin-3)phenyl 2-amino-5-guanidinopentanoate trihydrochloride [Example 4]",Effect on ApoA-I mRNA levels,[1],Active
Cc1ccc(C)c(OCCCC(C)(C)C(=O)O)c1 [gemfibrozil],increase in the HDL-C level,[2],6%
same,reduction of the CHD risk,[2],22%
O=c1c(O)c(-c2ccc(O)c(O)c2)oc2cc(O)cc(O)c12 [quercetin],intestinal absorption,[3],less than 1%
